Data set [1] is described as follows: Hydrolytic stability of the compound in water after 1 to 24 hrs by NMR spectroscopic analysis. It is filed as physicochemical.
Data set [2] can be described thus: Hydrolytic stability of the compound in phosphate buffer at pH 7.4 after 1 to 24 hrs by NMR spectroscopic analysis. Format: physicochemical.
Data set [3] can be described thus: Hydrolytic stability of the compound in dimethyl sulfoxide after 1 to 24 hrs by NMR spectroscopic analysis. Format: physicochemical.
In data set [4] the target is T1, Amine oxidase [flavin-containing] B (Homo sapiens, UniProt P27338).
T1 sequence (P27338 whole entry): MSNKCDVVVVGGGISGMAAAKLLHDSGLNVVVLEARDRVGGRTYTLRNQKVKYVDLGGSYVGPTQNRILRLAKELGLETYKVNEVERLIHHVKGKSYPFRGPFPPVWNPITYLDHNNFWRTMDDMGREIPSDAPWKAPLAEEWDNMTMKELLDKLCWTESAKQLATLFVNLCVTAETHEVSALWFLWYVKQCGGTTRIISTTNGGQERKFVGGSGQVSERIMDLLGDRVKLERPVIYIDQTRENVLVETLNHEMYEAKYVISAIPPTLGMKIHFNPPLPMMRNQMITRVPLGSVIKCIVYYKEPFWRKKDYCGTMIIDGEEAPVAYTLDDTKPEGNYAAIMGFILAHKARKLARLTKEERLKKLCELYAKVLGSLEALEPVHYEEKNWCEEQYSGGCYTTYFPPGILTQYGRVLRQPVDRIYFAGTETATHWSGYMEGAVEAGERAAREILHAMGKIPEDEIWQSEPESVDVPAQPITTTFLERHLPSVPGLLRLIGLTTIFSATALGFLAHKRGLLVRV
Description: Inhibition of human recombinant MAO-B expressed in baculovirus infected BTI-TN-5B1-4 cells assessed as production of hydrogen peroxide from p-tyramine at 100 uM after 15 mins by microplate fluorescence assay. To be noted: human, bti-tn-5b1-4, 0.25 h, 100 µM.

The target in data set [5] is T2, Amine oxidase [flavin-containing] A (Homo sapiens, UniProt P21397).
T2 sequence (P21397 whole entry): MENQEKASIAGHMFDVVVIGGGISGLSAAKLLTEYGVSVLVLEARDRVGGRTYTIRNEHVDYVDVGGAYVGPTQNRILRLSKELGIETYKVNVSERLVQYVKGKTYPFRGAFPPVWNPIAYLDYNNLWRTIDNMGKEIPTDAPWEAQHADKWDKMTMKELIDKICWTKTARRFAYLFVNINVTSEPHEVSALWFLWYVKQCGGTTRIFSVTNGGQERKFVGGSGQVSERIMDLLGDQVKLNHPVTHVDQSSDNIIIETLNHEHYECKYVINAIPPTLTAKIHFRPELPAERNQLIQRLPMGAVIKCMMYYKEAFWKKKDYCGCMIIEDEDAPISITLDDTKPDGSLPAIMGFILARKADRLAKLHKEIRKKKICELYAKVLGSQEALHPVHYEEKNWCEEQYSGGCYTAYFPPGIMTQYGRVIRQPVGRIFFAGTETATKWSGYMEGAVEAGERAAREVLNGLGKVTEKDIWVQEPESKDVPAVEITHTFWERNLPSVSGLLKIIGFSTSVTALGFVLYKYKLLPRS
Description: Inhibition of human recombinant MAO-A expressed in baculovirus infected BTI-TN-5B1-4 cells assessed as production of hydrogen peroxide from p-tyramine at 100 uM after 15 mins by microplate fluorescence assay. To be noted: human, bti-tn-5b1-4, 0.25 h, 100 µM.

The nature of data set [6]: Hydrolytic stability of the compound in acetonitrile after 1 to 24 hrs by NMR spectroscopic analysis. It is filed as physicochemical.
For data set [7], the target named is T1, Amine oxidase [flavin-containing] B. Description: biochemical. Format: cell-based, BTI-TN-5B1-4.
Description: Inhibition of human recombinant MAO-B expressed in baculovirus infected BTI-TN-5B1-4 cells assessed as production of hydrogen peroxide from p-tyramine after 15 mins by microplate fluorescence assay
The species named for data set [8] is Homo sapiens. Briefly: Selectivity ratio of IC50 for human recombinant MAO-A to IC50 for human recombinant MAO-B.
The target in data set [9] is T1, Amine oxidase [flavin-containing] B. Description: Inhibition of human recombinant MAO-B expressed in baculovirus infected BTI-TN-5B1-4 cells assessed as production of hydrogen peroxide from p-tyramine at 1 mM after 15 mins by microplate fluorescence assay. To be noted: bti-tn-5b1-4, 0.25 h, 1000 µM.
The target of data set [10] is T2, Amine oxidase [flavin-containing] A. Description: Inhibition of human recombinant MAO-A expressed in baculovirus infected BTI-TN-5B1-4 cells assessed as production of hydrogen peroxide from p-tyramine after 15 mins by microplate fluorescence assay.

Where only a bound is given, the exact number is not on record here.

For `CCOC(=O)c1cc2cc(I)cc(I)c2oc1=O`, the Stability entry in data set [1], in data set [2], in data set [3] and in [6] was “Stable” throughout. In addition, the “inhibition (INH)” value in data set [4] and in data set [5] was “Not Active” throughout.

Consider `CCOC(=O)c1cc2ccc(OCc3cccc(Cl)c3)cc2oc1=O`, for which the Stability result in [1], in data set [2], in data set [3] and in data set [6] was “Stable” each time. Moreover, 0.0612 µM corresponded to half-maximal inhibition in [7] (IC50). Besides, in [8], the Ratio IC50 is over 1630. For the same compound, the “inhibition (INH)” value in data set [5] is given as “Not Active”.

On to `NNC(=O)c1cc2ccccc2oc1=O`, for which the Stability result in data set [1], in data set [2], in data set [3] and in data set [6] was “Stable” in each case. In data set [7], this compound had an IC50 of 0.00322 µM. For the same compound, in [8], the Ratio IC50 was over 31100. Moreover, in data set [5], the “inhibition (INH)” value is given as “Not Active”.

As to `CCOC(=O)c1cc2cc(OC)ccc2oc1=O`, the Stability entry in [1], in data set [2], in [3] and in data set [6] was “Stable” each time. Moreover, in data set [7], the IC50 came out at 21.6 µM. For the same compound, in [8], the Ratio IC50 is over 4.6. For the same compound, in data set [5], the “inhibition (INH)” value is given as “Not Active”.

In the case of `O=C(NCCN1CCOCC1)c1ccc(Cl)cc1` [MOCLOBEMIDE], the “inhibition (INH)” value in [9] was “Not Active”.

Consider `CCOC(=O)c1cc2ccc(OCc3ccc(Cl)c(Cl)c3)cc2oc1=O`, for which the Stability result in data set [1], in data set [2], in data set [3] and in data set [6] was “Stable” in each case. This compound also came in with a half-maximal inhibitory concentration (IC50) in [7] of 0.00947 µM. Moreover, the Ratio IC50 in data set [8] is over 10600. The “inhibition (INH)” value in data set [5] is “Not Active”.

Consider `O=C(NNc1ccccc1)c1cc2ccccc2oc1=O`, for which the Stability result in data set [1], in data set [2], in data set [3] and in data set [6] was “Stable” each time. Also, the IC50 in data set [7] was found to be 4.52 µM; in data set [10] it was 41.4 µM. Further, the Ratio IC50 in data set [8] stood at 9.16.

`CCOC(=O)c1cc2ccc(OCc3ccccc3)cc2oc1=O`: the Stability entry in data set [1], in data set [2], in data set [3] and in data set [6] was “Stable” throughout. Moreover, it took 0.00701 µM to reach half-maximal inhibition in [7] (IC50). Also, the Ratio IC50 in data set [8] was over 14300. For the same compound, the “inhibition (INH)” value in data set [5] is recorded as “Not Active”.

As to `CCOC(=O)c1cc2ccc(OCc3ccc(C(C)(C)C)cc3)cc2oc1=O`, the Stability result in [1], in data set [2], in data set [3] and in [6] was “Stable” throughout. The IC50 in [7] turned out to be 3.75 µM. For the same compound, in [8], the Ratio IC50 is over 27. Moreover, the “inhibition (INH)” value in data set [5] is “Not Active”.

Regarding `CCOC(=O)c1cc2ccc(OC3CCCCCC3)cc2oc1=O`, the Stability entry in data set [1], in data set [2], in data set [3] and in data set [6] was “Stable” throughout. The IC50 in data set [7] was found to be 0.0215 µM; in data set [10], 46.4 µM. Besides, in data set [8], the Ratio IC50 was determined as 2160.

Values taken from ChEMBL document CHEMBL1828496 (Eur J Med Chem, 2011).
